One assay deals with mouse TAAR1 (Mus musculus (Mouse), UniProt Q923Y8). As to the kind of experiment: Radioligand binding assay on mouse TAAR1. The settings on record: mouse TAAR1, membranes of stably transfected HEK-293 cells; first value of cell mouse/rat. The method, then: (§1) Construction of TAAR Expression Plasmids and Stably Transfected Cell Lines
(§2) For the construction of expression plasmids the coding sequences of human, rat and mouse TAAR 1 were amplified from genomic DNA essentially as described by Lindemann et al.. The Expand High Fidelity PCR System (Roche Diagnostics) was used with 1.5 mM Mg^2+ and purified PCR products were cloned into pCR2.1-TOPO cloning vector (Invitrogen) following the instructions of the manufacturer. PCR products were subcloned into the pIRESneo2 vector (BD Clontech, Palo Alto, Calif.), and expression vectors were sequence verified before introduction in cell lines.
(§3) HEK293 cells (ATCC # CRL-1573) were cultured essentially as described by Lindemann et al. (2005). For the generation of stably transfected cell lines HEK293 cells were transfected with the pIRESneo2 expression plasmids containing the TAAR coding sequences (described above) with Lipofectamine 2000 (Invitrogen) according to the instructions of the manufacturer, and 24 hrs post transfection the culture medium was supplemented with 1 mg/ml G418 (Sigma, Buchs, Switzerland). After a culture period of about 10 d clones were isolated, expanded and tested for responsiveness to trace amines (all compounds purchased from Sigma) with the cAMP Biotrak Enzyme immunoassay (EIA) System (Amersham) following the non-acetylation EIA procedure provided by the manufacturer.
Radioligand Binding Assay on Mouse TAAR1
(§4) Membrane Preparation and Radioligand Binding.
(§5) HEK-293 cells stably expressing mouse TAAR1 were maintained at 37° C. and 5% CO2 in DMEM high glucose medium, containing fetal calf serum (10%, heat inactivated for 30 min at 56° C.), penicillin/streptomycin (1%), and 375 μg/ml geneticin (Gibco). Cells were released from culture flasks using trypsin/EDTA, harvested, washed twice with ice-cold PBS (without Ca^2+ and Mg^2+), pelleted at 1'000 rpm for 5 min at 4° C., frozen and stored at −80° C. Frozen pellets were suspended in 20 ml HEPES-NaOH (20 mM, pH 7.4) containing 10 mM EDTA and homogenized with a Polytron (PT 6000, Kinematica) at 14'000 rpm for 20 s. The homogenate was centrifuged at 48'000×g for 30 min at 4° C. Subsequently, the supernatant was removed and discarded, and the pellet resuspended in 20 ml HEPES-NaOH (20 mM, pH 7.4) containing 0.1 mM EDTA using the Polytron (20 s at 14'000 rpm). This procedure was repeated and the final pellet resuspended in HEPES-NaOH containing 0.1 mM EDTA and homogenized using the Polytron. Typically, aliquots of 2 ml membrane portions were stored at −80° C. With each new membrane batch the dissociation constant (Kd) was determined via a saturation curve. The TAAR1 radioligand ^3[H]-(S)-4-[(ethyl-phenyl-amino)-methyl]-4,5-dihydro-oxazol-2-ylamine (described in WO 2008/098857) was used at a concentration equal to the calculated Kd value, that was usually around 0.7 nM, resulting in the binding of approximately 0.5% of the radioligand and a specific binding representing approximately 70% of the total binding. Nonspecific binding was defined as the amount of ^3[H]-(S)-4-[(ethyl-phenyl-amino)-methyl]-4,5-dihydro-oxazol-2-ylamine bound in the presence of 10 μM unlabeled ligand. All compounds were tested at a broad range of concentrations (10 μM to 10 μM) in duplicates. […] The 96 deep well plates were incubated for 1 hr at 4° C. Incubations were terminated by rapid filtration through Unifilter-96 plates (Packard Instrument Company) and glass filters GF/C (Perkin Elmer) presoaked for 1 hr in polyethylenimine (0.3%) and washed 3 times with 1 ml of cold binding buffer. After addition of 45 μl of Microscint 40 (PerkinElmer) the Unifilter-96 plate was sealed and after 1 hr the radioactivity counted using a TopCount Microplate Scintillation Counter (Packard Instrument Company).

The target in a further assay is rat TAAR1 (Rattus norvegicus (Rat), UniProt Q923Y9). As to the kind of experiment: Radioligand binding assay on rat TAAR1. To be noted: rat TAAR1, membranes of stably transfected HEK-293 cells; second value of cell mouse/rat. The method, then:
as §1, §2, §3
Radioligand Binding Assay on Rat TAAR1
as §4
as §5, with “expressing rat” for “expressing mouse”, “curve. […]” for “curve. The TAAR1 radioligand ^3[H]-(S)-4-[(ethyl-phenyl-amino)-methyl]-4,5-dihydro-oxazol-2-ylamine (described in WO 2008/098857) was used at a concentration equal to the calculated Kd value, that was usually around 0.7 nM, resulting in the binding of approximately 0.5% of the radioligand and a specific binding representing approximately 70% of the total binding.”, “(10 pM” for “(10 μM”

Where a name gives a salt, the structure may show the parent alone.

By Ki is commonly meant a measure of affinity in units of concentration, obtained from inhibition or displacement.

Sequence of mouse TAAR1 (Q923Y8 whole entry): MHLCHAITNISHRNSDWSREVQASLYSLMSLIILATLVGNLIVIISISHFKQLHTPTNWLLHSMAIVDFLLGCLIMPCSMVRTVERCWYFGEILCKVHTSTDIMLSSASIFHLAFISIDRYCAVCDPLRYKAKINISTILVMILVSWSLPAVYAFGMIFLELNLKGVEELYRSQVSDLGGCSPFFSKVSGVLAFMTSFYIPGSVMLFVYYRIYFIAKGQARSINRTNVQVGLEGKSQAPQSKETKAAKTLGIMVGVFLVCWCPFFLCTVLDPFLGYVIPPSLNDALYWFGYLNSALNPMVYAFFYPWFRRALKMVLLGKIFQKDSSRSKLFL
Sequence of rat TAAR1 (Q923Y9 whole entry): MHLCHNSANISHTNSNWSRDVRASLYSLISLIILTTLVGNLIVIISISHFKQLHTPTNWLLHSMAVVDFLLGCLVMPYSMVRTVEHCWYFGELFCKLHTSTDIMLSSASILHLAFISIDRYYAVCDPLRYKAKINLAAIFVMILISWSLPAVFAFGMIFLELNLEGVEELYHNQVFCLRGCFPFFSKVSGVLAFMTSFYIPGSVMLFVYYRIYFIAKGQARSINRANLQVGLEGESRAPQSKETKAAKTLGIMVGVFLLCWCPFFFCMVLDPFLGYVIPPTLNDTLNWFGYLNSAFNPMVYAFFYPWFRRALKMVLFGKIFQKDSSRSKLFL

Take `NC1=N[C@@H](CCc2ccc(Nc3cc(C(F)(F)F)ccn3)cc2)CO1` [Example 23, {4-[2-((S)-2-Amino-4,5-dihydro-oxazol-4-yl)-ethyl]-phenyl}-(4-trifluoromethyl-pyridin-2-yl)-amine]: the Ki on mouse TAAR1 came out at 0.0003 µM; on rat TAAR1 it was 0.0002 µM.
Take `Cc1cc(Nc2ccc(CC[C@H]3COC(N)=N3)cc2)ncn1` [Example 24, {4-[2-((S)-2-Amino-4,5-dihydro-oxazol-4-yl)-ethyl]-phenyl}-(6-methyl-pyrimidin-4-yl)-amine]: the Ki was determined as 0.0182 µM on mouse TAAR1 and 0.0013 µM at rat TAAR1.
As for `Cc1cccc(Nc2ccc(CC[C@H]3COC(N)=N3)cc2)n1` [Example 25, {4-[2-((S)-2-Amino-4,5-dihydro-oxazol-4-yl)-ethyl]-phenyl}-(6-methyl-pyridin-2-yl)-amine], the Ki at mouse TAAR1 was determined as 0.0035 µM; on rat TAAR1 it was 0.0007 µM.
As for `NC1=N[C@@H](CCc2ccc(Nc3cccc(C(F)(F)F)n3)cc2)CO1` [Example 26, {4-[2-((S)-2-Amino-4,5-dihydro-oxazol-4-yl)-ethyl-]-phenyl}-(6-trifluoromethyl-pyridin-2-yl)-amine], the Ki was 0.0007 µM at mouse TAAR1 and 0.0008 µM on rat TAAR1.
As to `NC1=N[C@@H](CCc2ccc(Nc3cncc(Cl)n3)cc2)CO1` [Example 27, {4-[2-((S)-2-Amino-4,5-dihydro-oxazol-4-yl)-ethyl]-phenyl}-(6-chloro-pyrazin-2-yl)-amine], the figures for the Ki at mouse TAAR1 and on rat TAAR1 were 0.0182 µM and 0.004 µM, respectively.
The matching figures for `NC1=N[C@@H](CCc2ccc(Nc3cccc(Cl)n3)cc2)CO1` [Example 28, {4-[2-((8)-2-Amino-4,5-dihydro-oxazol-4-yl)-ethyl]-phenyl}-(6-chloro-pyridin-2-yl)-amine]: 0.001 µM and 0.0005 µM.
Turning to `Cc1ccc(Nc2ccc(CC[C@H]3COC(N)=N3)cc2)nc1` [Example 29, {4-[2-((8)-2-Amino-4,5-dihydro-oxazol-4-yl)-ethyl]-phenyl}-(5-methyl-pyridin-2-yl)-amine], the Ki on mouse TAAR1 amounted to 0.0306 µM; at rat TAAR1, 0.0035 µM.
On to `COc1ccc(Nc2ccc(CC[C@H]3COC(N)=N3)cc2)nc1` [Example 30, {4-[2-((S)-2-Amino-4,5-dihydro-oxazol-4-yl)-ethyl]-phenyl}-(5-methoxy-pyridin-2-yl)-amine], for which the Ki on mouse TAAR1 is 0.134 µM; on rat TAAR1, 0.0083 µM.
On the same counts, the results for `N#Cc1cncc(Nc2ccc(CC[C@H]3COC(N)=N3)cc2)n1` [Example 31, 6-{4-[2-((S)-2-Amino-4,5-dihydro-oxazol-4-yl)-ethyl]-phenylamino}-pyrazine-2-carbonitrile] are 0.0133 µM and 0.0059 µM.
On the same counts, the results for `NC1=N[C@@H](CCc2ccc(Nc3cc(Cl)ncn3)cc2)CO1` [Example 32, {4-[2-((S)-2-Amino-4,5-dihydro-oxazol-4-yl)-ethyl]-phenyl}-(6-chloro-pyrimidin-4-yl)-amine] are 0.0019 µM and 0.0008 µM.
The matching figures for `COc1cc(Nc2ccc(CC[C@H]3COC(N)=N3)cc2)ncn1` [Example 33, {4-[2-((S)-2-Amino-4,5-dihydro-oxazol-4-yl)-ethyl]-phenyl}-(6-methoxy-pyrimidin-4-yl)-amine]: 0.0096 µM and 0.0023 µM.
In the case of `Cc1nccc(Nc2ccc(CC[C@H]3COC(N)=N3)cc2)n1` [Example 34, {4-[2-((S)-2-Amino-4,5-dihydro-oxazol-4-yl)-ethyl]-phenyl}-(2-methyl-pyrimidin-4-yl)-amine], the figures for the Ki on mouse TAAR1 and on rat TAAR1 were 0.0387 µM and 0.0026 µM, respectively.
On the same counts, the results for `NC1=N[C@@H](CCc2ccc(Nc3ccncn3)cc2)CO1` [Example 35, (S)-4-(4-(Pyrimidin-4-ylamino)phenethyl)-4,5-dihydrooxazol-2-amine hydrochloride] are 0.0551 µM and 0.0023 µM.
The matching figures for `COc1ccnc(Nc2ccc(CC[C@H]3COC(N)=N3)cc2)n1` [Example 36, {4-[2-((S)-2-Amino-4,5-dihydro-oxazol-4-yl)-ethyl]-phenyl}-(4-methoxy-pyrimidin-2-yl)-amine]: 0.0047 µM and 0.0004 µM.
Turning to `CCc1cnc(Nc2ccc(CC[C@H]3COC(N)=N3)cc2)nc1` [Example 37, {4-[2-((S)-2-Amino-4,5-dihydro-oxazol-4-yl)-ethyl]-phenyl}-(5-ethyl-pyrimidin-2-yl)-amine], the Ki on mouse TAAR1 is 0.0013 µM; at rat TAAR1, 0.0012 µM.
Regarding `COc1cnc(Nc2ccc(CC[C@H]3COC(N)=N3)cc2)nc1` [Example 38, {4-[2-((8)-2-Amino-4,5-dihydro-oxazol-4-yl)-ethyl]-phenyl}-(5-methoxy-pyrimidin-2-yl)-amine], the Ki was 0.007 µM on mouse TAAR1 and 0.0007 µM at rat TAAR1.
Take `N#Cc1cnc(Nc2ccc(CC[C@H]3COC(N)=N3)cc2)cn1` [Example 39, 5-{4-[2-((8)-2-Amino-4,5-dihydro-oxazol-4-yl)-ethyl]-phenylamino}-pyrazine-2-carbonitrile]: the Ki at mouse TAAR1 was determined as 0.0128 µM; on rat TAAR1 it was 0.0043 µM.
In the case of `NC1=N[C@@H](CCc2ccc(Nc3nccc(C(F)(F)F)n3)cc2)CO1` [Example 40, {4-[2-((S)-2-Amino-4,5-dihydro-oxazol-4-yl)-ethyl]-phenyl}-(4-trifluoromethyl-pyrimidin-2-yl)-amine], the Ki on mouse TAAR1 was 0.0024 µM; on rat TAAR1 it was 0.001 µM.
Take `NC1=N[C@@H](CCc2ccc(Nc3nccnc3Cl)cc2)CO1` [Example 41, {4-[2-((S)-2-Amino-4,5-dihydro-oxazol-4-yl)-ethyl]-phenyl}-(3-chloro-pyrazin-2-yl)-amine]: the Ki worked out at 0.0593 µM on mouse TAAR1 and 0.0031 µM at rat TAAR1.
For the compound `NC1=N[C@@H](CCc2ccc(Nc3cc(C(F)(F)F)cc(Cl)n3)cc2)CO1` [Example 42, {4-[2-((S)-2-Amino-4,5-dihydro-oxazol-4-yl)-ethyl]-phenyl}-(6-chloro-4-trifluoromethyl-pyridin-2-yl)-amine], the Ki at mouse TAAR1 is 0.0008 µM; on rat TAAR1, 0.0016 µM.

(Values after patent US8673950B2, “Dihydrooxazol-2-amine derivatives” (Hoffmann-LaRoche Inc., priority 2010, dated 2014).)
